Results on 19 compounds are retold here after ChEMBL document CHEMBL3091350, “Synthesis and evaluation of the antimalarial, anticancer, and caspase 3 activities of tetraoxane dimers” (Bioorg Med Chem, 2013).

Each structure is given as a SMILES string. Calls of active or inactive are those of the source. No cut-off for these calls is given here.

The subject of series [1] is Plasmodium falciparum. Description: Antimalarial activity against chloroquine-sensitive Plasmodium falciparum 3D7 assessed as parasite growth inhibition after 48 hrs by SYBR green-1 dye-based fluorescence assay. In kind it is functional, organism-based. The following applies: 3D7, 48 h.
The subject of series [2] is HL-60. Nature of the series: Induction of apoptosis in human HL60 cells assessed as activation of caspase-3 activity at 10.1 to 30.3 uM after 24 hrs by flow cytometric analysis. It counts as functional, cell-based.
Series [3] can be described thus: Therapeutic index, ratio of IC50 for human KB cells to IC50 for chloroquine-resistant Plasmodium falciparum K1. It counts as cell-based. As to conditions: read-out: Ratio IC50.
Series [4] concerns KB. Description: Cytotoxicity against human KB cells assessed as cell viability after 24 hrs by MTT assay. In kind it is functional, cell-based. In general terms: Formazan colour is commonly taken as a measure of viable cells.
Series [5] relates to Plasmodium falciparum. Description: Antimalarial activity against chloroquine-resistant Plasmodium falciparum K1 assessed as parasite growth inhibition after 48 hrs by SYBR green-1 dye-based fluorescence assay. The following applies: K1, 48 h. It counts as functional, organism-based.
Series [6] concerns HL-60. Nature of the series: Cytotoxicity against human HL60 cells assessed as cell viability after 24 hrs by MTT assay. It counts as functional, cell-based. The following applies: HL-60, 24 h.
The nature of series [7]: Cytotoxicity against human HT29-AK cells assessed as cell viability after 24 hrs by MTT assay. It counts as functional, cell-based.
Series [8] relates to Plasmodium berghei. Nature of the series: Antimalarial activity against Plasmodium berghei ANKA infected in po dosed mouse assessed as inhibition of parasitemia administered for 3 days post-infection measured on day 4 by Giemsa staining. It counts as functional.
The test system of series [9] is Plasmodium berghei. Nature of the series: Antimalarial activity against Plasmodium berghei ANKA infected in mouse assessed as inhibition of parasitemia at 1 mg/kg, po administered for 3 days post-infection measured on day 4 by Giemsa staining relative to control. In kind it is functional.
Series [10] relates to Plasmodium berghei. Nature of the series: Antimalarial activity against Plasmodium berghei ANKA infected in mouse assessed as inhibition of parasitemia at 30 mg/kg, po administered for 3 days post-infection measured on day 4 by Giemsa staining relative to control. It counts as functional.
Series [11] concerns Plasmodium berghei. Description: Antimalarial activity against Plasmodium berghei ANKA infected in mouse assessed as inhibition of parasitemia at 3 mg/kg, po administered for 3 days post-infection measured on day 4 by Giemsa staining relative to control. In kind it is functional.
Series [12] deals with Plasmodium berghei. Nature of the series: Antimalarial activity against Plasmodium berghei ANKA infected in mouse assessed as inhibition of parasitemia at 10 mg/kg, po administered for 3 days post-infection measured on day 4 by Giemsa staining relative to control. It counts as functional.
For series [13], the system named is Plasmodium falciparum. Description: Antimalarial activity against chloroquine-sensitive Plasmodium falciparum 3D7. It counts as functional, organism-based.
In series [14] the test system is HL-60. Description: Induction of apoptosis in human HL60 cells assessed as activation of caspase-3 activity at 9.4 to 28.2 uM after 24 hrs by flow cytometric analysis. In kind it is functional, cell-based. For orientation: A flow cytometer gives signals particle by particle.
Series [15] has as its system HL-60. Nature of the series: Induction of apoptosis in human HL60 cells assessed as activation of caspase-3 activity at 0.2 to 0.6 uM after 24 hrs by flow cytometric analysis. In kind it is functional, cell-based.

In the case of `O=C(CC1CCC2(CC1)OOC1(CCCCC1)OO2)NCCCCNC(=O)CC1CCC2(CC1)OOC1(CCCCC1)OO2`, the IC50 (as a rule, the midpoint of a concentration-inhibition curve) in series [1] came to 28.9 nM.
For `O=C(CC1CCC2(CC1)OOC1(OO2)C2CC3CC(C2)CC1C3)NCCCNC(=O)CC1CCC2(CC1)OOC1(OO2)C2CC3CC(C2)CC1C3` (stereo unspecified), the result in series [2] was Active. Also, in series [3], the selectivity ratio was determined as 2530. The IC50 in [4] worked out at 62100 nM; in series [5], 24.6 nM; in [1], 4.7 nM; in [6], 20200 nM; in series [7], 22900 nM.
With `CCN(CC)CCCC(C)Nc1ccnc2cc(Cl)ccc12` (stereo unspecified) [CHLOROQUINE], the 50% inhibitory concentration (IC50) in [4] was determined as 97700 nM.
Take `O=C(CC1CCC2(CC1)OOC1(CCCCC1)OO2)NCCCN1CCN(CCCNC(=O)CC2CCC3(CC2)OOC2(CCCCC2)OO3)CC1`: the ED50 (commonly the dose that gives a 50% effect, or the effect in half of the subjects) in series [8] was found to be 6.4 mg/kg. Also, the inhibition in vivo – broadly, how much of the control response was suppressed – at 1 mg/kg in [9] is 29.9%. Besides, the inhibition in vivo at 30 mg/kg in series [10] worked out at 63.9%. Besides, the inhibition in vivo at 3 mg/kg in series [11] was found to be 46.1%. Also, in series [1], the IC50 was determined as 47.1 nM. For the same compound, the inhibition in vivo at 10 mg/kg in series [12] is 54.3%.
For the compound `CC1(CCC(=O)Nc2cccc(N)c2)OOC2(CCCCC2)OO1`, the IC50 in [1] is 102 nM; in [6], 31200 nM; in series [7], 75800 nM.
Consider `O=C(CC1CCC2(CC1)OOC1(CCCCC1)OO2)NCc1cccc(CNC(=O)CC2CCC3(CC2)OOC2(CCCCC2)OO3)c1`, for which the IC50 in [1] came to 38.6 nM.
As to `O=C(CC1CCC2(CC1)OOC1(CCCCC1)OO2)NCCCNC(=O)CC1CCC2(CC1)OOC1(CCCCC1)OO2`, the IC50 in series [1] amounted to 21.3 nM.
As for `O=C(CC1CCC2(CC1)OOC1(OO2)C2CC3CC(C2)CC1C3)NCCCN1CCN(CCCNC(=O)CC2CCC3(CC2)OOC2(OO3)C3CC4CC(C3)CC2C4)CC1` (stereo unspecified), the ED50 in series [8] was 7.7 mg/kg. Further, in series [9], the inhibition in vivo at 1 mg/kg amounted to 36.1%. Moreover, in series [10], the inhibition in vivo at 30 mg/kg was found to be 64.5%. Moreover, the inhibition in vivo at 3 mg/kg in series [11] was found to be 43.2%. Besides, the IC50 in series [1] was 3.5 nM. Moreover, the inhibition in vivo at 10 mg/kg in [12] was 46.2%.
For the compound `O=C(CC1CCC2(CC1)OOC1(OO2)C2CC3CC(C2)CC1C3)Nc1cccc(NC(=O)CC2CCC3(CC2)OOC2(OO3)C3CC4CC(C3)CC2C4)c1` (stereo unspecified), the selectivity ratio in series [3] was 1320. Further, the IC50 was 134000 nM in series [4]; 102 nM in series [5]; 57.2 nM in series [1]; > 100000 nM in series [6]; 92500 nM in series [7].
As for `O=C(CC1CCC2(CC1)OOC1(OO2)C2CC3CC(C2)CC1C3)NCCCCNC(=O)CC1CCC2(CC1)OOC1(OO2)C2CC3CC(C2)CC1C3` (stereo unspecified), the selectivity ratio in [3] was determined as 1870. Further, the ED50 in [8] is 16.1 mg/kg. The values for the IC50 in series [4], in series [5] and in [1] were 5040 nM, 2.7 nM and 11.2 nM, respectively. Besides, the inhibition in vivo at 1 mg/kg in series [9] turned out to be 22.1%. For the same compound, in [10], the inhibition in vivo at 30 mg/kg worked out at 54.8%. Also, in series [11], the inhibition in vivo at 3 mg/kg was 27.5%. Moreover, the inhibition in vivo at 10 mg/kg in series [12] was 49.6%.
Consider `CN1CCN(C2CCN(C(=O)CC3CCC4(CC3)OOC3(OO4)C4CC5CC(C4)CC3C5)CC2)CC1` (stereo unspecified), for which the IC50 in series [13] stood at 0.9 nM.
As to `O=C(CC1CCC2(CC1)OOC1(OO2)C2CC3CC(C2)CC1C3)NCc1cccc(CNC(=O)CC2CCC3(CC2)OOC2(OO3)C3CC4CC(C3)CC2C4)c1` (stereo unspecified), the IC50 in series [1] stood at 4 nM; in [6], 18800 nM; in series [7] it was 90200 nM. In addition, the outcome in series [14] was Active.
`COc1cc([C@@H]2c3cc4c(cc3[C@H](O)[C@H]3COC(=O)[C@H]23)OCO4)cc(OC)c1OC` [PODOFILOX]: the IC50 in [4] came out at 11.7 nM.
In the case of `CC1(CCC(=O)NCc2cccc(CNC(=O)CCC3(C)OOC4(CCCCC4)OO3)c2)OOC2(CCCCC2)OO1` (stereo unspecified), the selectivity ratio in series [3] came to 452. Further, the IC50 was 63100 nM in series [4]; 136 nM in [5]; 416 nM in series [1]; 34300 nM in series [6]; 32800 nM in series [7].
As to `O=C(CC1CCC2(CC1)OOC1(OO2)C2CC3CC(C2)CC1C3)Nc1ccc(NC(=O)CC2CCC3(CC2)OOC2(OO3)C3CC4CC(C3)CC2C4)cc1` (stereo unspecified), the IC50 in series [1] was 58.4 nM; in series [6] it was > 100000 nM; in series [7] it was 77600 nM.
As to `O=C(CC1CCC2(CC1)OOC1(OO2)C2CC3CC(C2)CC1C3)NCCNC(=O)CC1CCC2(CC1)OOC1(OO2)C2CC3CC(C2)CC1C3` (stereo unspecified), the selectivity ratio in [3] worked out at 7040. In addition, the IC50 in [4] was found to be 62700 nM; in [5], 8.9 nM; in series [1], 16.9 nM.
With `CC1(CCC(=O)NCCCN2CCN(CCCNC(=O)CCC3(C)OOC4(CCCCC4)OO3)CC2)OOC2(CCCCC2)OO1` (stereo unspecified), the selectivity ratio in [3] was 40.8. The ED50 in [8] was > 30 mg/kg. Also, the IC50 was 25000 nM in series [4], 612 nM in series [5] and 47.5 nM in series [1]. Besides, the inhibition in vivo at 1 mg/kg in series [9] worked out at 2.1%. Moreover, in series [10], the inhibition in vivo at 30 mg/kg turned out to be 33.2%. For the same compound, the inhibition in vivo at 3 mg/kg in [11] came to 22.3%. Also, in series [12], the inhibition in vivo at 10 mg/kg was found to be 21.4%.
Consider `C[C@H]1[C@H](OC(=O)CCC(=O)O)O[C@@H]2O[C@@]3(C)CC[C@H]4[C@H](C)CC[C@@H]1[C@@]24OO3` [ARTESUNATE], for which the ED50 in [8] was 1.6 mg/kg. Besides, in [9], the inhibition in vivo at 1 mg/kg came out at 38.5%. Besides, the inhibition in vivo at 30 mg/kg in series [10] was 99.7%. Moreover, the inhibition in vivo at 3 mg/kg in series [11] worked out at 62.4%. The IC50 in series [1] turned out to be 1.6 nM; in series [6], 2000 nM; in series [7], 38800 nM. In series [12], the inhibition in vivo at 10 mg/kg amounted to 95.2%.
In the case of `C[C@H]1[C@@H](O)O[C@@H]2O[C@@]3(C)CC[C@H]4[C@H](C)CC[C@@H]1[C@@]24OO3` [ARTENIMOL], the result in series [15] was Active. The values for the IC50 in [1], in series [6] and in series [7] were 3.5 nM, 400 nM and 66100 nM, respectively.
